ChEMBL document CHEMBL1138461, “4-Phenyl-7-azaindoles as potent and selective IKK2 inhibitors” (Bioorg Med Chem Lett, 2009)

Legend:
[1] = target: T1, Inhibitor of nuclear factor kappa-B kinase subunit alpha (Homo sapiens, UniProt O15111); assay: Inhibition of human recombinant IKK1
T1 sequence (O15111 whole entry): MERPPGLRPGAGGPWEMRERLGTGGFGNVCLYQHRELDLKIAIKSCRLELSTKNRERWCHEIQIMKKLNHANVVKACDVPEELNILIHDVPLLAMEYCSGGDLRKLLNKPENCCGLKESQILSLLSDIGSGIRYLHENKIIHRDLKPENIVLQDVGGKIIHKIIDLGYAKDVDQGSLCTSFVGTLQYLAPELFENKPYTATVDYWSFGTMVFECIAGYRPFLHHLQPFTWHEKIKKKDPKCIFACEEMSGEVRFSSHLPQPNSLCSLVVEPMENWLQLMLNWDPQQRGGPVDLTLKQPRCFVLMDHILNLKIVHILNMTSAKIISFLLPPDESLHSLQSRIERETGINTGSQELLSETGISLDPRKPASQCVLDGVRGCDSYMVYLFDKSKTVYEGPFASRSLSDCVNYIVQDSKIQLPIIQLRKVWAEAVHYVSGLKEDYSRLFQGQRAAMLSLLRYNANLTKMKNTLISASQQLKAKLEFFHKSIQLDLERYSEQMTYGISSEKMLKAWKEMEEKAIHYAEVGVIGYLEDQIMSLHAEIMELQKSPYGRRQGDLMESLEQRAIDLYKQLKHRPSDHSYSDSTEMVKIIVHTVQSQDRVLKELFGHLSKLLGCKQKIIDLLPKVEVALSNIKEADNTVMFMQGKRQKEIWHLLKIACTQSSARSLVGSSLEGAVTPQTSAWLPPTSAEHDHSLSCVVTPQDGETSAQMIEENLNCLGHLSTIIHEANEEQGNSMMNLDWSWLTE

[2] = target: T2, Inhibitor of nuclear factor kappa-B kinase subunit beta (Homo sapiens, UniProt O14920); assay: Inhibition of human recombinant IKK2
T2 sequence (O14920 whole entry): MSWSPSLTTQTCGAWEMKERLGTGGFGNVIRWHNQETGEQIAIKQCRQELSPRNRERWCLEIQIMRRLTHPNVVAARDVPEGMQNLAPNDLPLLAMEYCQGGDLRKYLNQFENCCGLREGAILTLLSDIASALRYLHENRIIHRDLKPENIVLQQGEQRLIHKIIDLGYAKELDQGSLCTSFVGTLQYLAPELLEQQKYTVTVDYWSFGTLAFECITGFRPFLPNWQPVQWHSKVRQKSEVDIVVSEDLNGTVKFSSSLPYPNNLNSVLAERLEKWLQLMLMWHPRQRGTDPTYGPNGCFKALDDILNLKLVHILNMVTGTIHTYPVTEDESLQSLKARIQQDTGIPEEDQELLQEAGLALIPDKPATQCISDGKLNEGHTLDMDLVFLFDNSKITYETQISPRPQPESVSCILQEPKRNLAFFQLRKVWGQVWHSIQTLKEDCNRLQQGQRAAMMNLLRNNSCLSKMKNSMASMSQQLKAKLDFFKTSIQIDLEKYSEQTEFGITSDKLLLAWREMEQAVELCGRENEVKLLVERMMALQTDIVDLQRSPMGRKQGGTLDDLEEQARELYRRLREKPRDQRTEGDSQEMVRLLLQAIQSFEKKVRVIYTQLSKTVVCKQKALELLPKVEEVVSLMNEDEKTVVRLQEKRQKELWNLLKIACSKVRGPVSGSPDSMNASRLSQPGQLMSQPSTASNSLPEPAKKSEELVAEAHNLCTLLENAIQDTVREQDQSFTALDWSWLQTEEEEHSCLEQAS

A549 = assay: Inhibition of TNF-alpha-induced NF-kappaB […] activation in human A549 cells; format: functional, cell-based
[3] = target: Rho-associated protein kinase 1 (Homo sapiens, UniProt Q13464); assay: Inhibition of human recombinant ROCK1
Chain of Rho-associated protein kinase 1 (Q13464 whole entry): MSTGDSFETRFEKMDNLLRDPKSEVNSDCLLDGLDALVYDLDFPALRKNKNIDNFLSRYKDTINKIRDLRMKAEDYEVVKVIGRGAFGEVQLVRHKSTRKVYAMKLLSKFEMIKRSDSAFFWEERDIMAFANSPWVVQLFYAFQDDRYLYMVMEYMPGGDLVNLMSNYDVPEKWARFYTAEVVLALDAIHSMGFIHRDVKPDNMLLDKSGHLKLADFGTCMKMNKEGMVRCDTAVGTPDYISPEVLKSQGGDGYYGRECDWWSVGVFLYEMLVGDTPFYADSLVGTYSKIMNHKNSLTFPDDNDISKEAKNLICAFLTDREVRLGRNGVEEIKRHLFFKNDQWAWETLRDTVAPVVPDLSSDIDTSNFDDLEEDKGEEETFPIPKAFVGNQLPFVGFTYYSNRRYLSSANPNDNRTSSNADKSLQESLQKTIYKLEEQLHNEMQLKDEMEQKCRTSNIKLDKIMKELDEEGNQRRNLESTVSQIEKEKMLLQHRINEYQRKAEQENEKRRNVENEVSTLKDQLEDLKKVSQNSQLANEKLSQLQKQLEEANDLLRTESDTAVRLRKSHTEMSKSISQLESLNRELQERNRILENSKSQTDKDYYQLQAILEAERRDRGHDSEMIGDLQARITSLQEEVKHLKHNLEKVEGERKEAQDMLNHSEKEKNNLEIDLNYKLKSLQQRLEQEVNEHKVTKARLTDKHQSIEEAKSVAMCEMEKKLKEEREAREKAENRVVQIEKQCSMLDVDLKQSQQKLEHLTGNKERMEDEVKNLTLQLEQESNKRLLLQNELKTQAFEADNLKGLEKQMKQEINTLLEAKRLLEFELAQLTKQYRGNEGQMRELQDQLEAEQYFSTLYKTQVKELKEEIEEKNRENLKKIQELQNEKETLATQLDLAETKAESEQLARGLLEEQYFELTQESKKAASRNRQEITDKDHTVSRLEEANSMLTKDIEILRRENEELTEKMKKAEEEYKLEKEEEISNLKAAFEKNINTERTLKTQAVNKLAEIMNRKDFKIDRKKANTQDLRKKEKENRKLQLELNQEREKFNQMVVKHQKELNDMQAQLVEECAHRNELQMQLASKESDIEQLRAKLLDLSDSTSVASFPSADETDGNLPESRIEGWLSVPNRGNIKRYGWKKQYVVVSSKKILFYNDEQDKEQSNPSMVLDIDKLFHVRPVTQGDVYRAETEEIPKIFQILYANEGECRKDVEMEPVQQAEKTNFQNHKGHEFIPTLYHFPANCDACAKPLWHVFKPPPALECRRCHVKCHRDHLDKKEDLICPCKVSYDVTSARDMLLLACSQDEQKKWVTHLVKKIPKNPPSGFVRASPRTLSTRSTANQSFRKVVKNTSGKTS

[4] = target: Glycogen synthase kinase-3 beta (Homo sapiens, UniProt P49841); assay: Inhibition of GSK3-beta kinase
Chain of Glycogen synthase kinase-3 beta (P49841 whole entry): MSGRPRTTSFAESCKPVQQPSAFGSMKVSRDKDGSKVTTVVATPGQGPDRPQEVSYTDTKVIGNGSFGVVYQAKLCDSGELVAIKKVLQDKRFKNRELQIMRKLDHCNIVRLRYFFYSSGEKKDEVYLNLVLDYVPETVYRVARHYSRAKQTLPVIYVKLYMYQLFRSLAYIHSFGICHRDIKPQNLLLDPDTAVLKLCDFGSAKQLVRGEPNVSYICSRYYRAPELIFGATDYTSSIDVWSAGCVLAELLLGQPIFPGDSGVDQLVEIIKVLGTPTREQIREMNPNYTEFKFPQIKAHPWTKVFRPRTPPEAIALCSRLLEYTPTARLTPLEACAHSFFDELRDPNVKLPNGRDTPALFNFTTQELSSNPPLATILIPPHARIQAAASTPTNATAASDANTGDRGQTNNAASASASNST

Aurora kinase B = Aurora kinase B (Homo sapiens, UniProt Q96GD4); assay: Inhibition of Aurora B kinase
Chain of Aurora kinase B (Q96GD4 whole entry): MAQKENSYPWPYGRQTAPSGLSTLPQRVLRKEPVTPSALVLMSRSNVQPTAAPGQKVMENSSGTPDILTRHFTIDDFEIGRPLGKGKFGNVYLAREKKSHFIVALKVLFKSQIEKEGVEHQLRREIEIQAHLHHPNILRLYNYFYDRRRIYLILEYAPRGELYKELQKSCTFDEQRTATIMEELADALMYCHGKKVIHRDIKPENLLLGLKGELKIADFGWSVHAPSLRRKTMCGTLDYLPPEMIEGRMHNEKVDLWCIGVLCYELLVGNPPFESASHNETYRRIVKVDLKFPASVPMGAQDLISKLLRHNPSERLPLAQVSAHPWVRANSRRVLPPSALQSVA

IC50 [1] [nM] | IC50 [2] [nM] | IC50 (A549) [nM] | IC50 [3] [nM] | IC50 [4] [nM] | IC50 (Aurora kinase B) [nM] | Compound
794 | 158 | – | – | – | – | CS(=O)(=O)Nc1ccc(-c2ccnc3[nH]ccc23)cc1
3980 | 3160 | – | – | – | – | c1ccc(-c2ccnc3[nH]ccc23)cc1
316 | 31.6 | – | – | – | – | CNCCNS(=O)(=O)c1ccc(-c2ccnc3[nH]ccc23)cc1
31.6 | 39.8 | – | – | – | – | O=S(=O)(NC1CNC1)c1ccc(-c2ccnc3[nH]ccc23)cc1
1260 | 5010 | – | – | – | – | NS(=O)(=O)c1cccc(-c2ccnc3[nH]ccc23)c1
50.1 | 79.4 | – | – | – | – | O=S1(=O)CCC(NS(=O)(=O)c2ccc(-c3ccnc4[nH]ccc34)cc2)CC1
126 | 20 | 316 | 316 | – | – | Cc1cc2c(-c3ccc(S(=O)(=O)NCCN)cc3)ccnc2[nH]1
12.6 | 20 | 50.1 | – | – | – | Cc1cc2c(-c3ccc(S(=O)(=O)NC4CCS(=O)(=O)CC4)cc3)ccnc2[nH]1
1000 | 39.8 | 501 | – | – | – | Cc1cc2c(-c3ccc(S(=O)(=O)N(C)C4CCS(=O)(=O)CC4)cc3)ccnc2[nH]1
316 | 20 | 501 | – | – | – | Cc1cc2c(-c3ccc(S(=O)(=O)NCCO)cc3)ccnc2[nH]1
7940 | 316 | 2000 | – | – | – | Cc1cc2c(-c3ccc(N(C)S(C)(=O)=O)cc3)ccnc2[nH]1
3980 | 63.1 | 1000 | – | – | – | Cc1cc2c(-c3ccc(NS(C)(=O)=O)cc3)ccnc2[nH]1
398 | 631 | – | – | – | – | NC(=O)c1ccc(-c2ccnc3[nH]ccc23)cc1
158 | 316 | – | – | – | – | NS(=O)(=O)c1ccc(-c2ccnc3[nH]ccc23)cc1
158 | 20 | 3980 | 10000 | – | – | NCCNS(=O)(=O)c1ccc(-c2ccnc3[nH]c(CC(N)=O)cc23)cc1
3160 | 39.8 | – | > 10000 | > 25100 | 1580 | Cc1cc2c(-c3ccc(S(=O)(=O)N(C)CCO)cc3)ccnc2[nH]1
126 | 15.8 | 2000 | – | – | – | Cc1cc2c(-c3ccc(NS(=O)(=O)CCN)cc3)ccnc2[nH]1
1260 | 251 | – | – | – | – | O=S(=O)(c1ccc(-c2ccnc3[nH]ccc23)cc1)N1CCCC1
794 | 200 | – | – | – | – | CN(C)CCNS(=O)(=O)c1ccc(-c2ccnc3[nH]ccc23)cc1

Compound | IC50 [1] [nM] | IC50 [2] [nM] | IC50 (A549) [nM] | IC50 [3] [nM] | IC50 [4] [nM] | IC50 (Aurora kinase B) [nM]
NCCNS(=O)(=O)c1ccc(-c2ccnc3[nH]ccc23)cc1 | 251 | 39.8 | 631 | 20 | – | –
